According to US10954214B2 (Janssen Pharmaceutica NV, priority 2016, dated 2021):

What was measured:
[1] = biological target: full-length MALT1 protein (Strep-MALT1(1-824)-His) (Homo sapiens (Human), UniProt Q9UDY8); assay: MALT1 Biochemical Protease Assay (Ac-LRSR-AMC substrate); conditions: 10 nM FL MALT1, 200 μM Ac-LRSR-AMC, 4 h at RT; read-out: MALT1_Biochemical activity (Ac-LRSR-amc) IC50
Procedure, shortened: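 Fluorescence from AMC release off the quenched LRSR substrate was read after a 4 h reaction at RT. Values were normalised to no-enzyme and uninhibited controls and fitted for IC50 and Hill coefficient.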

[2] = system: IL6 secretion by TMD8 ABC-DLBCL cells; assay: Human IL6 Mesoscale assay (TMD-8); assay type: cell-based; conditions: Homo sapiens, TMD8; TMD-8 cells, 24 h
Procedure, shortened: (§1)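 100,000 cells/well treated with compound in 9 twofold steps from 15 μM to 58.6 nM (0.3% DMSO) for 24 h at 37° C; supernatant cytokine measured by MSD electrochemiluminescence sandwich immunoassay. DMSO wells set maximum signal, BTK inhibitor RN486 (30 nM to 131 pM) set maximum inhibition.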

[3] = system: IL10 secretion by TMD8 ABC-DLBCL cells; assay: Human IL10 Mesoscale assay (TMD-8); assay type: cell-based; conditions: Homo sapiens, TMD8; TMD-8 cells, 24 h
Procedure, shortened: as §1

[4] = system: OCI-Ly3 cells; assay: 4-day proliferation assay, OCI-Ly3; assay type: cell-based, human; conditions: Homo sapiens, 96 h, 4 days incubation, CellTiterGLO, read-out: Anti-proliferation: OCI-LY-3 IC50
Procedure: (§2) To assess anti-proliferative effects, MALT1 inhibitor test compounds were tested in 4-day proliferation assays using three different DLBCL cell lines.
(§3) Cells should be kept between 0.5-2.5 million cells per mL during culturing and cells should be supplemented every 2-3 days with fresh 50 μM beta-mercaptoenthanol. No beta-mercaptoethanol is used during the proliferation assay. OCI-Ly7 cells were propagated in IMDM (ThermoFisher) supplemented with 10% fetal bovine serum (HyClone), 2 mM L-glutamine (Sigma Aldrich) and 50 μg/mL Gentamycin. Cell passage numbers should not exceed 30 (for OCI-Ly3 cells with passage number lower than 10 were used).
(§4) 10,000 TMD8, 10,000 OCI-Ly3 or 2,000 OCI-Ly7 cells were seeded in 100 μL media per well and incubated for 4 days at 37° C. and 5% CO2. Cell plating numbers were chosen based on growth curves to ensure linear cell growth. After 4 days of incubation 50 μL CellTiterGLO reagent (Promega) were added to each well and luminescence was measured on the Envision after 10 min of incubation at room temperature.
(§5) LC=median of the low control values
(§6) An estimate of the slope of the plot in terms of the Hill coefficient was also obtained.

[5] = system: TMD8 cells; assay: 4-day proliferation assay, TMD8; assay type: cell-based; conditions: Homo sapiens, 96 h, 4 days incubation, CellTiterGLO, read-out: Anti-proliferation: TMD-8 IC50
Procedure: as §2, §3, §4, §5, §6

[6] = system: IL6 secretion by OCI-LY3 ABC-DLBCL cells; assay: Human IL6 Mesoscale assay (OCI-LY3); assay type: cell-based; conditions: Homo sapiens, 24 h
Procedure, shortened: as §1

[7] = system: IL10 secretion by OCI-LY3 ABC-DLBCL cells; assay: Human IL10 Mesoscale assay (OCI-LY3); assay type: cell-based; conditions: Homo sapiens, 24 h
Procedure, shortened: as §1

Chain of full-length MALT1 protein (Strep-MALT1(1-824)-His) (Q9UDY8 whole entry): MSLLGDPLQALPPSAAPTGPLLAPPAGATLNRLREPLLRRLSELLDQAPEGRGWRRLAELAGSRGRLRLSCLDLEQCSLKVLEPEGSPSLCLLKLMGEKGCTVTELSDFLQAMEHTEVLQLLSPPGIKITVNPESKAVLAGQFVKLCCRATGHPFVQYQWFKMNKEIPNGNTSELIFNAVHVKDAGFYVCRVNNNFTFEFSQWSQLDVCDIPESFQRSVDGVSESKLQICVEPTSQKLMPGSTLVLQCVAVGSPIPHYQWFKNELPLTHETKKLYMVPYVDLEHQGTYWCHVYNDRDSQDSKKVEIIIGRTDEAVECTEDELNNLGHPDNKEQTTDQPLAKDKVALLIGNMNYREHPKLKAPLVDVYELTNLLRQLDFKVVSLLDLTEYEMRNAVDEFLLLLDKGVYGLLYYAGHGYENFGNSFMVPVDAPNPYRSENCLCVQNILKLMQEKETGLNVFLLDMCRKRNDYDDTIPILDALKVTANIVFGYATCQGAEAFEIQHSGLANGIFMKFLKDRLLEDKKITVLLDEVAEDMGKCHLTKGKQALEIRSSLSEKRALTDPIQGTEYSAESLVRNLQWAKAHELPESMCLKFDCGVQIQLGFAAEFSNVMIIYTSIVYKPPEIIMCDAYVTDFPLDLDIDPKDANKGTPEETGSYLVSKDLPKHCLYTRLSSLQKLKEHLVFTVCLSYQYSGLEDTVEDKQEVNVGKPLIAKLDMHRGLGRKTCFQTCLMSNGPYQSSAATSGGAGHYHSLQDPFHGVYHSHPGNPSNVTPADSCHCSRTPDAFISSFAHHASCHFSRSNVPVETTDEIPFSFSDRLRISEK

Row | Structure (SMILES) | IC50 [1] [nM] | IC50 [2] [nM] | IC50 [3] [nM] | IC50 [4] [nM] | IC50 [6] [nM] | IC50 [7] [nM] | IC50 [5] [µM]
1 | N#Cc1cc(NC(=O)c2cnn(-c3cncc4ccccc34)c2C(F)(F)F)ccc1-n1nccn1 [Cpd 59, N-(3-Cyano-4-(2H-1,2,3-triazol-2-yl)phenyl)-1-(isoquinolin-4-yl)-5-(trifluoromethyl)-1H-pyrazole-4-carboxamide] | 31 | 68 | 74 | 140 | – | – | 6.76
2 | Cn1ccc(-c2ncc(NC(=O)c3cnn(-c4cccc5ccncc45)c3C(F)(F)F)cc2Cl)n1 [Cpd 21, N-(5-Chloro-6-(1-methyl-1H-pyrazol-3-yl)pyridin-3-yl)-1-(isoquinolin-8-yl)-5-(trifluoromethyl)-1H-pyrazole-4-carboxamide] | 1440 | > 15000 | – | ~12900 | – | – | > 20
3 | N#Cc1cc(NC(=O)c2cnn(-c3ccnc4ccsc34)c2C(F)(F)F)cnc1-n1nccn1 [Cpd 128, N-(5-cyano-6-(2H-1,2,3-triazol-2-yl)pyridin-3-yl)-1-(thieno[3,2-b]pyridin-7-yl)-5-(trifluoromethyl)-1H-pyrazole-4-carboxamide] | 16 | 95 | 105 | 188 | 27 | 36 | –
4 | CC(C)Cc1c(C(=O)Nc2cnc(-n3nccn3)c(Cl)c2)cnn1-c1cccc2ncccc12 [Cpd 16, N-(5-Chloro-6-(2H-1,2,3-triazol-2-yl)pyridin-3-yl)-5-isobutyl-1-(quinolin-5-yl)-1H-pyrazole-4-carboxamide] | 724 | 1480 | – | 580 | – | – | 10.7
5 | Cn1ncc2c(-n3ncc(C(=O)Nc4cnc(-n5nccn5)c(C#N)c4)c3C(F)(F)F)ccnc21 [Cpd 241, N-(5-cyano-6-(2H-1,2,3-triazol-2-yl)pyridin-3-yl)-1-(1-methyl-1H-pyrazolo[3,4-b]pyridin-4-yl)-5-(trifluoromethyl)-1H-pyrazole-4-carboxamide] | 562 | 49 | 69 | – | 51 | 37 | –
6 | N#Cc1cc(NC(=O)c2cnn(-c3cnc4ccccn34)c2C(F)(F)F)cnc1-n1nccn1 [Cpd 189, N-(5-cyano-6-(2H-1,2,3-triazol-2-yl)pyridin-3-yl)-1-(imidazo[1,2-a]pyridin-3-yl)-5-(trifluoromethyl)-1H-pyrazole-4-carboxamide] | 78 | 107 | 63 | – | 39 | 27 | –
7 | Cc1csc2c(-n3ncc(C(=O)Nc4cnc(-n5nccn5)c(C#N)c4)c3C(F)(F)F)ccnc12 [Cpd 310, N-(5-cyano-6-(2H-1,2,3-triazol-2-yl)pyridin-3-yl)-1-(3-methylthieno[3,2-b]pyridin-7-yl)-5-(trifluoromethyl)-1H-pyrazole-4-carboxamide] | 52 | – | – | 1270 | 646 | 490 | –
8 | Cc1cc(NC(=O)c2cnn(-c3cccc4ncccc34)c2C(F)(F)F)ccc1-n1cc(CN)cn1 [Cpd 238, N-(4-(4-(aminomethyl)-1H-pyrazol-1-yl)-3-methylphenyl)-1-(quinolin-5-yl)-5-(trifluoromethyl)-1H-pyrazole-4-carboxamide] | 676 | 32 | 50 | – | 44 | 35 | –
9 | N#Cc1cc(NC(=O)c2cnn(-c3cncc4ccccc34)c2C(F)(F)F)cnc1C(=O)NCCCCN [Cpd 236, N-(4-aminobutyl)-3-cyano-5-(1-(isoquinolin-4-yl)-5-(trifluoromethyl)-1H-pyrazole-4-carboxamido)picolinamide] | 724 | 1380 | 427 | – | 380 | 309 | –
10 | Cn1ccc(-c2ncc(NC(=O)c3cnn(-c4ccc(F)c5ncccc45)c3C(F)(F)F)cc2C#N)n1 [Cpd 268, N-(5-cyano-6-(1-methyl-1H-pyrazol-3-yl)pyridin-3-yl)-1-(8-fluoroquinolin-5-yl)-5-(trifluoromethyl)-1H-pyrazole-4-carboxamide] | 155 | 158 | 229 | – | 95 | 63 | –
11 | Cc1ccc2ncccc2c1-n1ncc(C(=O)Nc2cnc(-n3nccn3)c(Cl)c2)c1C(F)(F)F [Cpd 27, N-(5-Chloro-6-(2H-1,2,3-triazol-2-yl)pyridin-3-yl)-1-(6-methylquinolin-5-yl)-5-(trifluoromethyl)-1H-pyrazole-4-carboxamide] | 35 | 105 | – | 1950 | – | – | 13.8
12 | Cn1ncc2cccc(-n3ncc(C(=O)Nc4cnc(-n5nccn5)c(C#N)c4)c3C(F)(F)F)c21 [Cpd 260, N-(5-cyano-6-(2H-1,2,3-triazol-2-yl)pyridin-3-yl)-1-(1-methyl-1H-indazol-7-yl)-5-(trifluoromethyl)-1H-pyrazole-4-carboxamide] | 204 | > 3020 | > 3020 | – | > 3020 | > 3020 | –

More lines, main results first:

Row | IC50 [1] [nM] | IC50 [2] [nM] | IC50 [3] [nM] | IC50 [4] [nM] | IC50 [6] [nM] | IC50 [7] [nM] | Structure (SMILES) | IC50 [5] [µM]
13 | 107 | 54 | 46 | – | 13 | 10 | O=C1COC(c2ncc(-n3ncc(C(=O)Nc4cnc(-n5nccn5)c(Cl)c4)c3C(F)(F)F)c3ccccc23)C1 (stereo not shown) [Cpd 370, N-(5-chloro-6-(2H-1,2,3-triazol-2-yl)pyridin-3-yl)-1-(1-(4-oxotetrahydrofuran-2-yl)isoquinolin-4-yl)-5-(trifluoromethyl)-1H-pyrazole-4-carboxamide] | –
14 | 26 | 170 | 200 | – | 26 | 17 | CNC(=O)c1ncc(-n2ncc(C(=O)Nc3cnc(-n4nccn4)c(Cl)c3)c2C(F)(F)F)c2ccsc12 [Cpd 392, 4-(4-((5-chloro-6-(2H-1,2,3-triazol-2-yl)pyridin-3-yl)carbamoyl)-5-(trifluoromethyl)-1H-pyrazol-1-yl)-N-methylthieno[2,3-c]pyridine-7-carboxamide] | –
15 | 69 | 13 | 25 | – | 18 | 18 | CC(O)c1ncc(-n2ncc(C(=O)Nc3cnc(-n4nccn4)c(Cl)c3)c2C(F)(F)F)c2ccccc12 (stereo not shown) [Cpd 371, N-(5-chloro-6-(2H-1,2,3-triazol-2-yl)pyridin-3-yl)-1-(1-(1-hydroxyethyl)isoquinolin-4-yl)-5-(trifluoromethyl)-1H-pyrazole-4-carboxamide] | –
16 | 58 | 107 | 63 | – | 39 | 27 | C[C@@H](O)c1nccc2c(-n3ncc(C(=O)Nc4cnc(-n5nccn5)c(Cl)c4)c3C(F)(F)F)cccc12 (single isomer, unassigned) [Cpd 444, (*R)—N-(5-chloro-6-(2H-1,2,3-triazol-2-yl)pyridin-3-yl)-1-(1-(1-hydroxyethyl)isoquinolin-5-yl)-5-(trifluoromethyl)-1H-pyrazole-4-carboxamide] | –
17 | 23 | 78 | 98 | – | 100 | 68 | O=C(Nc1cnc(-n2nccn2)c(Cl)c1)c1cnn(-c2cccc3cnccc23)c1C(F)(F)F [Cpd 449, N-(5-chloro-6-(2H-1,2,3-triazol-2-yl)pyridin-3-yl)-1-(isoquinolin-5-yl)-5-(trifluoromethyl)-1H-pyrazole-4-carboxamide] | –
